Format in all cases: cell-based, human
Assay [1] relates to MECP2-KO neurons. The experiment in a line: Calcium imaging of neurons. To be noted: vs untreated KO. Here is the method: (§1) Pharmacologic treatment. One-month old cortical organoids were treated for 1 mo with either Nefiracetam (10 μM) or PHA 543613 (10 μM) during media changes.
Calcium imaging. Calcium imaging was performed as described in Chailangkarn et al. Briefly, PSC-derived neuronal networks were lentivirally transduced with a Syn::RFP reporter construct. Cultures were washed with Krebs HEPES buffer and incubated with Fluo-4AM (Molecular Probes/Invitrogen, Carlsbad, Calif., USA). A Hamamatsu ORCA-ER digital camera (Hamamatsu Photonics, Japan) with 488 nm filter on an Olympus IX81 inverted fluorescence confocal microscope (Olympus Optical, Tokyo, Japan) acquired 5000 frames at 28 Hz in a 256×256 pixel region (100× magnification). Images were acquired with MetaMorph7.7 (MDS Analytical Technologies, Sunnyvale, Calif., USA) and analyzed with ImageJ and Matlab7.2 (Mathworks, Natick, Mass., USA). Syn::RFP+ neurons were selected following tetrodotoxin blockade of calcium transients. A 95th-percentile threshold of amplitude for calcium spikes was set for event detection; signal amplitude is presented as fluorescence change (ΔF/F) following background subtraction.

The test system of assay [2] is MECP2-KO cortical organoids. Put plainly: MEA electrophysiology of cortical organoids. To be noted: 1 μM for one month, compared with control organoids. Here is the method: (§2) Multi-electrode array (MEA) analysis. MEA analyses of neurons and cortical organoids were performed as described in Nageshappa et al. (Mol. Psychiatry 21:178-188 (2016)). Briefly, 3D neurosphere cultures of NPC derivation were plated on dual-chamber MEA; spontaneous spike activity was evaluated with the MED64 System (Panasonic). Glutamatergic (AP5, NBQX), GABAergic (Gabazine), and gap channel (Mefloquine) antagonism were used to check neuronal activity. After measurement, neurons were immunostained to check morphology and density. Recorded spikes were analyzed with the software Neuroexplorer (Nex Technologies, Madison, Ala., USA). For cortical organoids, 1-month organoids were plated on MEA plates and recordings were collected with a Maestro MEA system and AxIS Software Spontaneous Neural Configuration (Axion Biosystems, Atlanta, Ga., USA) using a customized script. The plate rested in the machine for three minutes followed by four minutes of recording. […] The synchrony index was calculated using a 20 ms cross-correlogram synchrony window was used to determine the synchrony index. […]
Nefiracetam and PHA 543613 rescue network activity in MECP2-KO cortical organoids. The therapeutic efficacy of Nefiracetam and PHA 543613 was evaluated with cortical organoids, a complex, three-dimensional human neurodevelopmental model that closely recapitulates aspects of human fetal neurodevelopment. […]

The test system of assay [3] is MECP2-KO neurons. Put plainly: Multi-electrode array (MEA) of neurons. The procedure:
as §1
as §2, with “recording. Axion Biosystems' Neural Metrics Tool classified electrodes with at least 5 spikes/min as active.” for “recording.”

The subject of assay [4] is MECP2-mosaic (CTR/KO) neurospheres. Put plainly: Neurosphere size (diameter). To be noted: 8-week MECP2-mosaic neurospheres, P=0.79. The text has this:
Nefiracetam and PHA 543613 increase activity in MECP2-mosaic neurospheres. Because MECP2 resides on the X chromosome, random X-inactivation in females can produce a genetic pattern of mosaicism, with consequent phenotypic gradation, in which some cells express the normal allele while others are mutant. Therefore, as the next stage to evaluate the two drug candidates, a neurosphere model of MECP2 mosaicism was developed to mimic the female RTT brain by combining different proportions of control and MECP2-KO NPCs (see FIG. 7A-C). […] Calcium transient frequency in MECP2-mosaic neurospheres was increased by treatment with Nefiracetam in isolation (1 μM, P<0.05) and when combined with PHA 543613 (10 μM, P<0.001; FIG. 7H), but calcium transient amplitude was unaffected by either compound (P=0.255; FIG. 7I). To investigate the impact of the drug treatments on the electrophysiological properties of the MECP2-mosaic model, neurospheres treated with 1 μM Nefiracetam, 1 μM PHA 543613, or both Nefiracetam and PHA 543613 were plated to perform MEA analysis. […] Because each drug conferred a benefit to MECP2-mosaic neurospheres, both Nefiracetam and PHA 543613 were retained for further evaluation in a more complex human neurodevelopmental model.

Entries after “also recorded” stand apart in the source; their conditions may differ.

The text below walks through data of patent US20230102192A1, “THERAPIES FOR THE TREATMENT OF DISEASES AND DISORDERS ASSOCIATED WITH ABNORMAL EXPRESSION OF A NEURAL-ASSOCIATED GENE” (The Regents of the University of California, priority 2020, published 2023).

With `Cc1cccc(C)c1NC(=O)CN1CCCC1=O` [Nefiracetam, nefiracetam], in assay [1], the “frequency of calcium oscillations” value is “increases; also recorded: significantly increase” and the “percentage of active neurons” value was “increase”. Also, the “population spiking (MEA)” value in assay [2] is given as “increased population spiking to a level not significantly different from that of control organoids”. The “MEA spike frequency / network spiking activity” value in assay [3] is “increases network spiking activity; also recorded: restore”. Besides, the neurosphere diameter entry in assay [4] is given as “did not alter”.

Regarding `O=C(N[C@H]1CN2CCC1CC2)c1cc2ccoc2cn1` [PHA 543613, N-[(3R)-1-azabicyclo[2.2.2]oct-3-yl]furo[2,3-c]pyridine-5-carboxamide], in assay [1], the “frequency of calcium oscillations” value was “increases; also recorded: significantly increase” and the “percentage of active neurons” value is “increase”. The “population spiking (MEA)” value in assay [2] is reported as “increased population spiking to a level not significantly different from that of control organoids”. Besides, the “MEA spike frequency / network spiking activity” value in assay [3] was “increases network spiking activity; also recorded: restore”. Moreover, the neurosphere diameter entry in assay [4] is listed as “did not alter”.
